The values below come from patent US20130065885A1, “ORAL THERAPEUTIC COMPOUND DELIVERY SYSTEM” (IMAGINOT PTY LTD., priority 2004, published 2013).

Broadly, the solubility is how much of the substance goes into solution per volume. A low value points to a poorly soluble substance.

Series [1] is described as follows: physchem. Conditions: water.
For series [2] the following is noted: cited from earlier work.

Structures are written as SMILES. Structures can show the parent of a compound that is named as a salt. Where two headings read alike, the source gives them in different places.

On to `CN1CCC[C@@H]1Cc1c[nH]c2ccc(CCS(=O)(=O)c3ccccc3)cc12` [Eletriptan hydrobromide], for which the “Volume of water to dissolve dose” value (dose as in the Dose (mg) column) stood at 4 mL.

For `CC(=O)Nc1ccc(O)cc1` [paracetamol], the “volume needed for total dissolution of the dose” value (weight for weight basis, dose in the paracetamol/tramadol hydrochloride tablet) is recorded as “around 27 mL”.

As to `COc1cccc(C2(O)CCCCC2CN(C)C)c1` (stereo not drawn) [tramadol hydrochloride], the “Volume of water to dissolve dose” value was found to be 1.3 mL and the “volume needed for total dissolution of the dose” value is listed as “around 1 mL”. In addition, in series [1], the solubility is 30 mg/mL. For the same compound, the solubility in water result in series [2] was “around 30 mg/mL”.
